From patent publication US20240238076A1, “PROCESS FOR PRODUCING VASCULAR PROSTHESES” (Medizinische Universität Wien, priority 2021, published 2024)

Test system: HUVECs
Experiment: XTT cytotoxicity test with HUVEC cultures
Assay type: cell-based, human
Conditions: 24 h incubation, 10-fold dilution series from 450 μmol/ml
Experimental: Human umbilical vein endothelial cells (HUVEC, pooled donator, Lonza, Switzerland) were cultivated in endothelial growth medium (EGM-2, Lonza, Switzerland) supplemented with 10% of FBS. The exchange of medium was conducted every other day. The cells were used for the experiments between passage 3 and 6.
XTT (2,3-bis(2-methoxy-4-nitro-5-sulfophenyl)-5-[(phenylamino)carbonyl)-2H-tetrazoliumhydroxide) can be reduced to a formazan product in viable cells. The result can be determined by photometric measurements and correlated with the number of viable cells. The assay was conducted based on ISO10993-5.
HUVECs or macrophages were seeded on the polymer disks at a cell number of 10,000 cells/disk in a 96 well plate for 24 h until a confluent cell layer was formed. XTT powder was dissolved in a cell culture medium with 60° C. at a concentration of 1 mg/ml. PMS (phenazine methosulfate, Sigma-Aldrich, USA) was dissolved in PBS at a concentration of 5 mM. For preparing a working solution, which was added to cells, PMS was pipetted into the XTT solution at a concentration of 25 μM. The cells were incubated with 50 μl of this XTT working solution for 4 h at 37° C. in a cell culture incubator. The medium was then transferred to a new 96 well plate, and absorption at 450 nm was measured with a reference wavelength of 620 nm. The results are shown in FIG. 9 as mean values of three determinations. […]

CC(C)(C)NCCNC(C)(C)C [TBEDA, N,N′-di-tert-butylethylenediamine]
Concentration from which the viability of HUVECs was at an acceptable level: 45 µmol/mL
